# Entries after “also recorded” stand apart in the source; their conditions may differ. Read-outs that look alike come from different tables or passages of the source.
# Assays:
# Type in all cases: cell-based
# [1] = test system: Staphylococcus aureus; assay: MIC Agar Dilution Test, Staphylococcus aureus
# Source text: (§1) The following strains of microorganisms were used in Minimum Inhibitory Concentration (MIC) tests for phenyl 2-acetoxyethanoic acid in this example and for benzoyl peroxide, chlorhexidine gluconate and triclosan in the following examples. In total, five strains were used for S. aureus, five strains were used for S. epidermidis, two strains were used for M. sedentarius, three strains were used for M. luteus, two strains were used for B. epidermis, three strains were used for C. minutissium, one strain was used for S. marcescens, three strains were used for P. aeruginosa, four strains were used for E. coli, and thirty-two strains were used for P. acnes.
# (§2) Antimicrobial effects were determined based on MIC Agar Dilution Test utilizing Trypticase Soy Agar II (BBL) incorporation plates with and without 10% intralipid (Kabi Pharmacia Inc.). Initially, phenyl 2-acetoxyethanoic acid was prepared as a 2 mg/ml (0.2%) solution in water. This solution with serial dilution was incorporated into the test agar plates. The MIC test gave similar results when the same species but a different strain was used.
# (§3) Under the same test conditions described in Example 1, benzoyl peroxide was prepared as a 2.5 mg/ml (0.25%) solution in water. This solution with serial dilution was incorporated into the test agar plates. Typical test results are shown as follows.
# (§4) Under the same test conditions described in Example 1, chlorhexidine gluconate was prepared as a 2 mg/ml (0.2%) solution in water. This solution with serial dilution was incorporated into the test agar plates. Typical test results are shown as follows.
# (§5) Under the same test conditions described in Example 1, triclosan was prepared as a 10 mg/ml (1%) solution in water. This solution with serial dilution was incorporated into the test agar plates. Typical test results are shown as follows.
# (§6) Ten different species of bacteria were used in Minimum Inhibitory Concentration (MIC) tests. The bacteria include S. aureus, S. epidermidis,M. sedentarius, M. luteus, B. epidermis, C. minutissium, S. marcescens, P. aeruginosa, E. coli, and P. acnes. In addition various sources and strains of these bacteria were also included in the tests, and up to 32 different strains of P. acnes were used.
# (§7) The test substance selected from phenyl 2-acetoxyethanoic acid, benzoyl peroxide, chlorhexidine gluconate and triclosan was dissolved in water, and the solution with serial dilution was incorporated into the test agar plates. The plates containing different concentrations of test substance were inoculated with a strain of bacterium. MIC is defined as the lowest concentration of the test substance in the plate in which there is no growth of the microorganism.
# [2] = test system: Staphylococcus epidermidis; assay: MIC Agar Dilution Test, Staphylococcus epidermidis
# Source text: as §1, §2, §3, §4, §5, §6, §7
# [3] = test system: Micrococcus sedentarius; assay: MIC Agar Dilution Test, Micrococcus sedentarius; details: Kytococcus sedentarius
# Source text: as §1, §2, §3, §4, §5, §6, §7
# [4] = test system: Micrococcus luteus; assay: MIC Agar Dilution Test, Micrococcus luteus
# Source text: as §1, §2, §3, §4, §5, §6, §7
# [5] = test system: Brevibacterium epidermis; assay: MIC Agar Dilution Test, Brevibacterium epidermis
# Source text: as §1, §2, §3, §4, §5, §6, §7
# [6] = test system: Corynebacterium minutissium; assay: MIC Agar Dilution Test, Corynebacterium minutissium
# Source text: as §1, §2, §3, §4, §5, §6, §7
# [7] = test system: Serratia marcescens; assay: MIC Agar Dilution Test, Serratia marcescens
# Source text: as §1, §2, §3, §4, §5, §6, §7
# [8] = test system: Pseudomonas aeruginosa; assay: MIC Agar Dilution Test, Pseudomonas aeruginosa
# Source text: as §1, §2, §3, §4, §5, §6, §7
# [9] = test system: Escherichia coli; assay: MIC Agar Dilution Test, Escherichia coli
# Source text: as §1, §2, §3, §4, §5, §6, §7
# [10] = test system: Propionibacterium acnes; assay: MIC Agar Dilution Test, Propionibacterium acnes; details: Cutibacterium acnes
# Source text: as §1, §2, §3, §4, §5, §6, §7
# [11] = test system: ten different species of bacteria; assay: MIC Agar Dilution Test, panel of ten bacteria
# Source text: as §1, §2, §3, §4, §5
# In order to determine the antimicrobial effect of an aryl 2-acetoxyethanoicacid, a standard test method of Minimum Inhibitory Concentration (MIC) against the growth of 10 bacteria was used. To determine a prophylactic effect against the development of, as well as a topical effect in the treatment of, body foul door, eleven human subjects participated in this study. More than twenty human subjects participated in a study to determine whether the compositions containing an aryl 2-acetoxyethanoic acid were therapeutically effective for topical treatment of folliculitis and other skin lesions, nail infections and mucosal infections caused by microbial infections. Scientific and test results are overviewed as follows.
# as §6, §7
# [12] = S. aureus, 10% intralipid, read-out: MIC Lipid
# [13] = S. aureus, no lipid, read-out: MIC No Lipid
# [14] = S. epidermidis, 10% intralipid, read-out: MIC Lipid
# [15] = S. epidermidis, no lipid, read-out: MIC No Lipid
# [16] = M. sedentarius, 10% intralipid, read-out: MIC Lipid
# [17] = M. sedentarius, no lipid, read-out: MIC No Lipid
# [18] = M. luteus, 10% intralipid, read-out: MIC Lipid
# [19] = M. luteus, no lipid, read-out: MIC No Lipid
# [20] = B. epidermis, 10% intralipid, read-out: MIC Lipid
# [21] = B. epidermis, no lipid, read-out: MIC No Lipid
# [22] = C. minutissium, 10% intralipid, read-out: MIC Lipid
# [23] = C. minutissium, no lipid, read-out: MIC No Lipid
# [24] = S. marcescens, 10% intralipid, read-out: MIC Lipid
# [25] = S. marcescens, no lipid, read-out: MIC No Lipid
# [26] = P. aeruginosa, 10% intralipid, read-out: MIC Lipid
# [27] = P. aeruginosa, no lipid, read-out: MIC No Lipid
# [28] = E. coli, 10% intralipid, read-out: MIC Lipid
# [29] = E. coli, no lipid, read-out: MIC No Lipid
# [30] = P. acnes, 10% intralipid, read-out: MIC Lipid
# [31] = P. acnes, no lipid, read-out: MIC No Lipid
# [32] = in the absence of lipid materials, triclosan: excluding S. marcescens and P. aeruginosa
# [33] = in the presence of 10% lipid materials, benzoyl peroxide: excluding S. marcescens and P. aeruginosa
smiles,measurement,setting,value
O=C(OOC(=O)c1ccccc1)c1ccccc1 [benzoyl peroxide],MIC,[1]; [12],1250 µg/mL
same,MIC,[1]; [13],2500 µg/mL
same,MIC,[2]; [14],1250 µg/mL
same,MIC,[2]; [15],2500 µg/mL
same,MIC,[3]; [16],650 µg/mL
same,MIC,[3]; [17],2500 µg/mL
same,MIC,"[3]; in the presence of 10% lipid materials, read-out: concentration showing inhibitory effects against M. sedentarius",625 µg/mL
same,MIC,[4]; [18],650 µg/mL
same,MIC,[4]; [19],2500 µg/mL
same,MIC,"[4]; in the presence of 10% lipid materials (printed M. lutens), read-out: concentration showing inhibitory effects against M. luteus",625 µg/mL
same,MIC,[5]; [20],1250 µg/mL
same,MIC,[5]; [21],2500 µg/mL
same,MIC,[6]; [22],1250 µg/mL
same,MIC,[6]; [23],2500 µg/mL
same,MIC,[7]; [24],1250 µg/mL
same,MIC,[7]; [25],72500 µg/mL
same,MIC,[8]; [26],1250 µg/mL
same,MIC,[8]; [27],72500 µg/mL
same,MIC,[9]; [28],1250 µg/mL
same,MIC,[9]; [29],2500 µg/mL
same,MIC,[10]; [30],625 µg/mL
same,MIC,[10]; [31],2500 µg/mL
same,MIC,"[10]; in the presence of 10% lipid materials, read-out: concentration effective against P. acnes",625 µg/mL
same,effect against the growth of the bacteria,[11]; [32],not effective against the growth of all the bacteria tested
same,effect against the growth of the bacteria,[11]; [33],moderately effective
N=C(NCCCCCCNC(=N)NC(=N)Nc1ccc(Cl)cc1)NC(=N)Nc1ccc(Cl)cc1 [chlorhexidine gluconate],MIC,[1]; [12],> 2000 µg/mL
same,MIC,[1]; [13],125 µg/mL
same,MIC,[2]; [14],> 2000 µg/mL
same,MIC,[2]; [15],125 µg/mL
same,MIC,[3]; [16],> 2000 µg/mL
same,MIC,[3]; [17],125 µg/mL
same,MIC,[4]; [18],> 2000 µg/mL
same,MIC,[4]; [19],125 µg/mL
same,MIC,[5]; [20],> 2000 µg/mL
same,MIC,[5]; [21],250 µg/mL
same,MIC,[6]; [22],> 2000 µg/mL
same,MIC,[6]; [23],125 µg/mL
same,MIC,[7]; [24],> 2000 µg/mL
same,MIC,[7]; [25],1000 µg/mL
same,MIC,[8]; [26],> 2000 µg/mL
same,MIC,[8]; [27],1000 µg/mL
same,MIC,[9]; [28],> 2000 µg/mL
same,MIC,[9]; [29],250 µg/mL
same,MIC,[10]; [30],> 2000 µg/mL
same,MIC,[10]; [31],62.5 µg/mL
same,effect against the growth of the bacteria,[11]; [32],effective against various bacteria
same,effect against the growth of the bacteria,[11]; [33],totally ineffective; also recorded: not effective against the growth of all the bacteria tested; also recorded: ineffective against most microorganisms
Oc1cc(Cl)ccc1Oc1ccc(Cl)cc1Cl [triclosan],MIC,[1]; read-out: MIC Lipid,> 10000 µg/mL
same,MIC,[1]; read-out: MIC No Lipid,156 µg/mL
same,MIC,[2]; read-out: MIC Lipid,5000 µg/mL
same,MIC,[2]; read-out: MIC No Lipid,156 µg/mL
same,MIC,[3]; read-out: MIC Lipid,> 10000 µg/mL
same,MIC,[3]; read-out: MIC No Lipid,156 µg/mL
same,MIC,[4]; read-out: MIC Lipid,> 10000 µg/mL
same,MIC,[4]; read-out: MIC No Lipid,156 µg/mL
same,MIC,[5]; read-out: MIC Lipid,> 10000 µg/mL
same,MIC,[5]; read-out: MIC No Lipid,156 µg/mL
same,MIC,[6]; read-out: MIC Lipid,> 10000 µg/mL
same,MIC,[6]; read-out: MIC No Lipid,156 µg/mL
same,MIC,[7]; read-out: MIC Lipid,> 10000 µg/mL
same,MIC,[7]; read-out: MIC No Lipid,> 10000 µg/mL
same,MIC,[8]; read-out: MIC Lipid,> 10000 µg/mL
same,MIC,[8]; read-out: MIC No Lipid,> 10000 µg/mL
same,MIC,[9]; read-out: MIC Lipid,> 10000 µg/mL
same,MIC,[9]; read-out: MIC No Lipid,156 µg/mL
same,MIC,[10]; read-out: MIC Lipid,> 10000 µg/mL
same,MIC,[10]; read-out: MIC No Lipid,156 µg/mL
same,effect against the growth of the bacteria,[11]; [32],effective against various bacteria
same,effect against the growth of the bacteria,[11]; [33],ineffective; also recorded: not effective against the growth of all the bacteria tested; also recorded: ineffective against most microorganisms
same,MIC,[11]; read-out: concentration found effective against the bacteria tested,156 µg/mL
